Patent US9815851B2, “Pyrrolo carboxamides as modulators of orphan nuclear receptor RAR-related orphan receptor-gamma (RORγ, NR1F3) activity and for the treatment of chronic inflammatory and autoimmune diseases” (PHENEX PHARMACEUTICALS AG, priority 2011, dated 2017)
Read-outs that look alike come from different tables or passages of the source.

Legend:
RORγ = target: T1, RORγ (UniProt P51449); assay: RORγ Gal4 Reporter Gene Assay in 293T cells (firefly and renilla luciferase); format: cell-based, human
T1 sequence (P51449 1-518): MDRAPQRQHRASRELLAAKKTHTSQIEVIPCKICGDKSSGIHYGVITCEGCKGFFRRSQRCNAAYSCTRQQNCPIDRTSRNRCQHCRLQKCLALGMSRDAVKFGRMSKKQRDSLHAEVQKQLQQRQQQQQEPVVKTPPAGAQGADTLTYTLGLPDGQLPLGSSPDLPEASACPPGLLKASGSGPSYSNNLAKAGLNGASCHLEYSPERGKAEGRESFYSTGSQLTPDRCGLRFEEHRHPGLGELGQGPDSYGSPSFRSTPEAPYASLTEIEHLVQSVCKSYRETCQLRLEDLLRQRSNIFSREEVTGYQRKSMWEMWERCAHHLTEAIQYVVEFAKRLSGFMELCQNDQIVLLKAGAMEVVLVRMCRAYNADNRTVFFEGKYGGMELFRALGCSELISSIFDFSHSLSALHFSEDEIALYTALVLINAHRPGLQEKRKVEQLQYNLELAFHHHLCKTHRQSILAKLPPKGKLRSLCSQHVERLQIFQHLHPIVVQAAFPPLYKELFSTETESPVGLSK

[1] = target: T2, RORγ ligand binding domain (LBD) (Homo sapiens, UniProt P51449); assay: TR-FRET Activity Assay (ligand sensing, RORγ-LBD / coactivator peptide interaction, LANCE); format: biochemical
T2 construct: made in house; host or cells: E. coli BL-21 (BL3), vector pDEST15
T2 sequence (P51449 269-508 limits assumed): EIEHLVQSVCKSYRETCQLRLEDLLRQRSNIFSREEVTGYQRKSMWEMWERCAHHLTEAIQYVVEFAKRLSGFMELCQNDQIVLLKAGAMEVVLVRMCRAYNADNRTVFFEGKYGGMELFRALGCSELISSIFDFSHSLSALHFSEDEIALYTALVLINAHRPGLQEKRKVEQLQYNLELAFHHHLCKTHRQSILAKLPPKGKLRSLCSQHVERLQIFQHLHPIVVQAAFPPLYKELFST

[2] = second value of the cell, Gal4 reporter gene assay in 293T cells, firefly luciferase
[3] = third value of the cell, Gal4 reporter gene assay in 293T cells, renilla normalised luciferase
[4] = first value of the cell FRET/FF/REN, TR-FRET activity assay, read-out: pIC50 (FRET) (converted)

| pIC50 (FF) (RORγ; [2]) | pIC50 (REN) (RORγ; [3]) | IC50 [1, 4] | Structure (SMILES) | pIC50 (FF) (RORγ) | pIC50 (REN) (RORγ) | IC50 [1] |
| --- | --- | --- | --- | --- | --- | --- |
| 7.4 | 7.4 | 0.2 µM | Cc1c(C(=O)NC2CCOCC2)cc(-c2cc(C(C)(C)C)c3c(c2)C2(CCO3)CC2)n1CC1CCCCC1 [1/93] | – | – | – |
| – | – | – | COC(C)(C)CNC(=O)c1cc(-c2cc(C(C)(C)C)c3c(c2)C2(CCO3)CC2)n(CC2CCCCC2)c1C [1/97] | 6.6/7.1/7.0 | 6.6/7.1/7.0 | 0.251 µM |
| – | – | – | Cc1c(C(=O)NCC2(O)CCOCC2)cc(-c2cc(C(C)(C)C)c3c(c2)C2(CCO3)CC2)n1CC1CCCCC1 [1/99] | 6.4/7.1/7.2 | 6.4/7.1/7.2 | 0.398 µM |
| 7.2 | 7.2 | 0.251 µM | Cc1c(C(=O)NCC2COC2)cc(-c2cc(C(C)(C)C)c3c(c2)C2(CCO3)CC2)n1CC1CCCCC1 [1/100] | – | – | – |
| 7.3 | 7.3 | 0.398 µM | Cc1c(C(=O)NCC(C)(C)NS(C)(=O)=O)cc(-c2cc(C(C)(C)C)c3c(c2)C2(CCO3)CC2)n1CC1CCCCC1 [1/103] | – | – | – |
| – | – | – | Cc1c(C(=O)NCCS(C)(=O)=O)cc(-c2cc(C(C)(C)C)c3c(c2)C2(CCO3)CC2)n1CC1CCCCC1 [1/104] | 6.3/6.8/6.8 | 6.3/6.8/6.8 | 0.501 µM |
| – | – | – | Cc1c(C(N)=O)cc(-c2cc(C(C)(C)C)c3c(c2)C2(CCO3)CC2)n1CC1CCCCC1 [1/105] | 6.6/6.5/6.5 | 6.6/6.5/6.5 | 0.251 µM |
| < 4.7 | < 4.7 | 12.6 µM | Cc1c(C(=O)NCC(C)(C)O)cc(-c2cc(C(C)N3CCOCC3)cc(C(C)(C)C)c2)n1CC1CCCCC1 (stereo not drawn) [1/109] | – | – | – |
| 7.3 | 7.4 | 0.794 µM | Cc1c(C(=O)NCC(C)(C)O)cc(-c2cc(C(=O)N(C)C(C)(C)C)cc(C3(C)CC3)c2)n1CC1CCCCC1 [1/110] | – | – | – |
| – | – | – | Cc1c(C(=O)NCC(C)(C)O)cc(-c2cc(C(=O)NC(C)(C)C)cc(C3(C)CC3)c2)n1CC1CCCCC1 [1/111] | 6.4/7.4/7.4 | 6.4/7.4/7.4 | 0.398 µM |
| 7.1 | 7.1 | 0.501 µM | Cc1c(C(=O)NCC(C)(C)O)cc(-c2cc(C(=O)NC(C)C)cc(C3(C)CC3)c2)n1CC1CCCCC1 [1/112] | – | – | – |
| < 4.7 | < 4.7 | 3.98 µM | Cc1c(C(=O)NCC(O)(C(F)(F)F)C(F)(F)F)cc(-c2cc(C(C)(C)C)cc(C(C)(C)C)c2)n1CC1CCCCC1 [1/113] | – | – | – |
| 6.7 | 6.8 | 0.251 µM | Cc1c(C(=O)NC2COC2)cc(-c2cc(C(C)(C)C)cc(C(C)(C)C)c2)n1CC1CCC(C)CC1 (stereo not drawn) [1/114] | – | – | – |
| 7.3 | 7.3 | 0.251 µM | Cc1c(C(=O)NC2COC2)cc(-c2cc(C(C)(C)C)cc(C(C)(C)C)c2)n1CC1CCCCCC1 [1/115] | – | – | – |
| 6.9/6.9/6.9 | 6.9/6.9/6.9 | 0.126 µM | Cc1c(C(=O)NC2COC2)cc(-c2cc(C(C)(C)C)cc(C(C)(C)C)c2)n1CCC1CCCC1 [1/116] | – | – | – |
| 6.8 | 7.0 | 0.501 µM | Cc1c(C(=O)NC2COC2)cc(-c2cc(C(C)(C)C)cc(C(C)(C)C)c2)n1CC1CC2CCC1C2 (stereo not drawn) [1/117] | – | – | – |
| 6.5 | 6.6 | 0.631 µM | Cc1c(C(=O)NC2COC2)cc(-c2cc(C(C)(C)C)cc(C(C)(C)C)c2)n1CC1Cc2ccccc2C1 [1/118] | – | – | – |
| – | – | – | Cc1c(C(=O)NC2COC2)cc(-c2cc(C(C)(C)C)cc(C(C)(C)C)c2)n1CC1CCCC(C)C1 (stereo not drawn) [1/119] | 6.7/7.4/7.3 | 6.7/7.4/7.3 | 0.2 µM |
| – | – | – | Cc1c(C(=O)NC2COC2)cc(-c2cc(OCC(C)(C)C)nc(C(C)(C)C)c2)n1CC1CCCCC1 [1/120] | 6.9/7.1/7.3 | 6.9/7.1/7.3 | 0.126 µM |
| – | – | – | Cc1c(C(=O)NC2COC2)cc(-c2cc(OCC(C)C)nc(C(C)(C)C)c2)n1CC1CCCCC1 [1/121] | 6.9/7.0/7.2 | 6.9/7.0/7.2 | 0.126 µM |
| 6.8 | 6.8 | 0.501 µM | Cc1c(C(=O)NCC(C)(C)NS(C)(=O)=O)cc(-c2ccc(S(=O)(=O)NC(C)(C)C)c(C(C)(C)C)c2)n1CC1CCCCC1 [1/123] | – | – | – |
| – | – | – | Cc1c(C(=O)NCC2(O)CCOCC2)cc(-c2ccc(S(=O)(=O)NC(C)(C)C)c(C(C)(C)C)c2)n1CC1CCCCC1 [1/124] | 6.2/7.5/7.5 | 6.2/7.5/7.5 | 0.631 µM |
| 7.4 | 7.4 | 0.794 µM | Cc1c(C(=O)NCC(C)(C)C(N)=O)cc(-c2ccc(S(=O)(=O)NC(C)(C)C)c(C(C)(C)C)c2)n1CC1CCCCC1 [1/125] | – | – | – |
| 7.1 | 7.0 | 0.631 µM | Cc1c(C(=O)NCC2COC2)cc(-c2ccc(S(=O)(=O)NC(C)(C)C)c(C(C)(C)C)c2)n1CC1CCCCC1 [1/126] | – | – | – |
| – | – | – | Cc1c(C(=O)NCC2(C)COC2)cc(-c2ccc(S(=O)(=O)NC(C)(C)C)c(C(C)(C)C)c2)n1CC1CCCCC1 [1/127] | 6.3/7.5/7.4 | 6.3/7.5/7.4 | 0.501 µM |
| 7.3 | 7.3 | 1.58 µM | Cc1c(C(=O)NCC(C)(C)C(=O)O)cc(-c2ccc(S(=O)(=O)NC(C)(C)C)c(C(C)(C)C)c2)n1CC1CCCCC1 [1/129] | – | – | – |

| Structure (SMILES) | pIC50 (FF) (RORγ; [2]) | pIC50 (REN) (RORγ; [3]) | IC50 [1, 4] | pIC50 (FF) (RORγ) | pIC50 (REN) (RORγ) | IC50 [1] |
| --- | --- | --- | --- | --- | --- | --- |
| Cc1c(C(=O)NC2CC2)cc(-c2cc(C(C)(C)C)c3c(c2)C2(CCO3)CC2)n1CC1CCCCC1 [1/92] | 7.0 | 6.9 | 0.2 µM | – | – | – |
| Cc1c(C(=O)NCC2CCOCC2)cc(-c2cc(C(C)(C)C)c3c(c2)C2(CCO3)CC2)n1CC1CCCCC1 [1/94] | 7.4 | 7.3 | 0.501 µM | – | – | – |
| Cc1c(C(=O)N[C@H]2CCOC2)cc(-c2cc(C(C)(C)C)c3c(c2)C2(CCO3)CC2)n1CC1CCCCC1 [1/95] | 7.0 | 7.1 | 0.158 µM | – | – | – |
| Cc1c(C(=O)N[C@@H]2CCOC2)cc(-c2cc(C(C)(C)C)c3c(c2)C2(CCO3)CC2)n1CC1CCCCC1 [1/96] | 6.7 | 6.8 | 0.2 µM | – | – | – |
| Cc1c(C(=O)NCC(C)(C)C(N)=O)cc(-c2cc(C(C)(C)C)c3c(c2)C2(CCO3)CC2)n1CC1CCCCC1 [1/98] | 7.3 | 7.3 | 0.631 µM | – | – | – |
| Cc1c(C(=O)NCC2(C)COC2)cc(-c2cc(C(C)(C)C)c3c(c2)C2(CCO3)CC2)n1CC1CCCCC1 [1/101] | 7.2 | 7.2 | 0.251 µM | – | – | – |
| Cc1c(C(=O)NCC2CC2)cc(-c2cc(C(C)(C)C)c3c(c2)C2(CCO3)CC2)n1CC1CCCCC1 [1/102] | 6.4 | 6.4 | 0.501 µM | – | – | – |
| Cc1c(C(=O)NC2COC2)cc(-c2cc(CN3CCOCC3)cc(C(C)(C)C)c2)n1CC1CCCCC1 [1/108] | 7.2 | 7.3 | 7.94 µM | – | – | – |
| Cc1c(C(=O)NC2COC2)cc(-c2cc(C(C)(C)C)nc(C(C)(C)C)c2)n1CC1CCCCC1 [1/122] | 7.0 | 7.0 | 0.158 µM | – | – | – |
| Cc1c(C(=O)NCCCCCO)cc(-c2ccc(S(=O)(=O)NC(C)(C)C)c(C(C)(C)C)c2)n1CC1CCCCC1 [1/128] | 7.2 | 7.2 | 0.501 µM | – | – | – |
